Measured values taken from the NIST ThermoML archive (doi:10.1021/je060291c).
Where “and” joins values, the source holds several entries; their conditions need not be identical. Equal entries are not always repeated.

Test: wn = mass fraction of the nth substance listed
Conditions: Liquid, Pulse-echo method, w2 = 0.49

CC(F)(F)F [1,1,1-trifluoroethane] + FC(F)C(F)(F)F
speed of sound
Conditions | 288.18 K | 298.19 K | 308.19 K
1290 kPa | – | 375.4 m/s | –
1300 kPa | – | 375.4 m/s and 375.5 m/s | –
1360 kPa | – | 376.9 m/s | –
1510 kPa | – | 379.6 m/s | –
1630 kPa | – | 381.8 m/s | –
1670 kPa | – | – | 324.1 m/s and 324.2 m/s
1740 kPa | – | – | 326 m/s
1750 kPa | – | 384.2 m/s | –
1840 kPa | – | – | 328.4 m/s
2010 kPa | 440.2 m/s | 388.7 m/s | 332.4 m/s
2250 kPa | 444 m/s | 393 m/s | 338 m/s
2510 kPa | 447.4 m/s | 397.3 m/s | 343.6 m/s
2750 kPa | 450.9 m/s | 401.5 m/s | 348.9 m/s
3010 kPa | 454.3 m/s | 405.6 m/s | 354 m/s
3500 kPa | 460.9 m/s | 413.4 m/s | 363.8 m/s
4000 kPa | 467.5 m/s | 421.1 m/s | 373.1 m/s
4500 kPa | 473.5 m/s | 428.4 m/s | 381.8 m/s
5000 kPa | 479.7 m/s | 435.4 m/s | 390.1 m/s
6010 kPa | 491.5 m/s | 448.7 m/s | 405.6 m/s
7010 kPa | 502.5 m/s | 461.1 m/s | 419.8 m/s
8000 kPa | 513.1 m/s | 473 m/s | 433.3 m/s
9000 kPa | 523.2 m/s | 484.3 m/s | 445.6 m/s
10000 kPa | 532.9 m/s | 494.9 m/s | 457.5 m/s
12000 kPa | 551.3 m/s | 515.1 m/s | 479.6 m/s
14000 kPa | 568.6 m/s | 533.7 m/s | 499.8 m/s
16010 kPa | 585 m/s | 551.1 m/s | 518.5 m/s
18000 kPa | 600.2 m/s | 567.6 m/s | 536.1 m/s
20000 kPa | 614.9 m/s | 583.2 m/s | 552.6 m/s
23000 kPa | 635.8 m/s | 605.1 m/s | 575.7 m/s
26000 kPa | 655.3 m/s | 625.5 m/s | 597.3 m/s
29010 kPa | 673.8 m/s | 645.1 m/s | 617.4 m/s
32000 kPa | 691.2 m/s | 663.2 m/s | 636.3 m/s
35000 kPa | 708.3 m/s | 680.8 m/s | 654.6 m/s and 654.3 m/s
40000 kPa | 734.9 m/s | 708.2 m/s | 682.9 m/s
45000 kPa | 759.7 m/s | 734 m/s | 709.3 m/s
50000 kPa | 783.2 m/s | 758 m/s | 734 m/s
55000 kPa | 805.1 m/s | 780.7 m/s and 780.9 m/s | –
60000 kPa | 826.3 m/s | 802.3 m/s and 802.4 m/s | –
65000 kPa | 846.7 m/s | 823.1 m/s | –

Conditions | speed of sound [m/s]
298.19 K | 375.4
